# According to patent US20090068290A1, “BIFEPRUNOX DOSES FOR TREATING SCHIZOPHRENIA” (priority 2006, published 2009):
# Key:
# Assay type in all cases: in vivo, human
# [1] = Body weight, Clinical Study One
# Protocol: Statistical testing of the change from Baseline in weight was performed using similar methodology to that used for the secondary efficacy parameters (an ANCOVA model with factors for treatment and weight at Baseline). Pairwise comparisons of the bifeprunox treatment groups versus placebo were all statistically significant (bifeprunox 5 mg [p=0.025], bifeprunox 10 mg [p=0.009] and bifeprunox 20 mg [p=0.031] for the difference between bifeprunox and placebo mean change from Baseline in weight at Endpoint.
# [2] = test system: adult subjects with schizophrenia; experiment: CGI Severity of Illness score, Clinical Study Two; details: for Change from Baseline in CGI Severity of Illness Score, Mean (SD) / Change from Baseline in CGI Severity of Illness Score, Median / Change from Baseline in CGI Severity of Illness Score, Trt Effect (bifeprunox—placebo) / mean change (SD) from Baseline to Endpoint in CGI severity of illness score: LOCF; for Change from Baseline in CGI Severity of Illness Score, Mean (SD) / Change from Baseline in CGI Severity of Illness Score, Median / Change from Baseline in CGI Severity of Illness Score, Trt Effect (bifeprunox—placebo): ITT population; for CGI severity of illness score, treatment effect (bifeprunox—placebo): Endpoint LOCF; for mean change (SD) from Baseline to Endpoint in CGI severity of illness score: ITT
# Protocol: Rating scale assessments were performed weekly, except for week 5, to measure the change from baseline to endpoint of the PANSS total score. Other assessments included: PANSS positive symptom subscale score, PANSS negative symptom subscale score, PANSS general pschopathology subscale score, BPRS total score, BPRS psychosis score, the CGI-S score, the CGI-I score, responder rates based on the PANSS total score, and the Calgary Depression Scale for Schizophrenia (CDSS). […]
# (§1) Subjects who completed this study had the option to continue in the long-term. […] Risperidone-treated subjects were titrated from 2 mg to 6 mg daily over a three-day period and were subsequently maintained at 6 mg/day for the remainder of the treatment period. […] Blood samples were also obtained at Screening/Baseline, Week 3, and Week 6 for clinical laboratory assessments.
# [3] = test system: adult subjects with schizophrenia; experiment: Adverse events (TEAE, SAE, special interest, EPS-related TEAE), Clinical Study Two
# Protocol: as §1
# [4] = Bifeprunox 30 mg, Week 6/Endpoint
# [5] = Bifeprunox 40 mg, Week 6/Endpoint
structure (smiles),measurement,setting,value
"O=c1[nH]c2cccc(N3CCN(Cc4cccc(-c5ccccc5)c4)CC3)c2o1 [Bifeprunox, 7-[4-([1,1′-biphenyl]-3-ylmethyl)-1-piperazinyl]-2(3H)-benzoxazolone]",mean weight change at Endpoint,[1]; bifeprunox 5 mg,−1.0 lb
same,subjects whose weight decreased by more than 7%,[1]; bifeprunox 5 mg,6%
same,mean weight change at Endpoint,[1]; bifeprunox 10 mg,−1.3 lb
same,subjects whose weight decreased by more than 7%,[1]; bifeprunox 10 mg,7%
same,mean weight change at Endpoint,[1]; bifeprunox 20 mg,−0.6 lbs
same,subjects whose weight decreased by more than 7%,[1]; bifeprunox 20 mg,8%
same,body weight (in words),"[1]; bifeprunox groups, 6 weeks",Mild weight loss
same,weight compared to placebo,"[1]; bifeprunox, 6 weeks (Example 4)",statistically significant (P<0.05) weight decrease
same,"Change from Baseline in CGI Severity of Illness Score, Mean (SD)","[2]; Bifeprunox 30 mg, Week 1",−0.33 (0.77)
same,"Change from Baseline in CGI Severity of Illness Score, Median","[2]; Bifeprunox 30 mg, Week 1",0.0
same,"Change from Baseline in CGI Severity of Illness Score, Mean (SD)","[2]; Bifeprunox 30 mg, Week 2",−0.58 (0.97)
same,"Change from Baseline in CGI Severity of Illness Score, Median","[2]; Bifeprunox 30 mg, Week 2",0.0
same,"Change from Baseline in CGI Severity of Illness Score, Mean (SD)","[2]; Bifeprunox 30 mg, Week 3",−0.67 (1.08)
same,"Change from Baseline in CGI Severity of Illness Score, Median","[2]; Bifeprunox 30 mg, Week 3",0.0
same,"Change from Baseline in CGI Severity of Illness Score, Mean (SD)","[2]; Bifeprunox 30 mg, Week 4",−0.68 (1.11)
same,"Change from Baseline in CGI Severity of Illness Score, Median","[2]; Bifeprunox 30 mg, Week 4",0.0
same,"Change from Baseline in CGI Severity of Illness Score, Mean (SD)",[2]; [4],−0.69 (1.19)
same,"Change from Baseline in CGI Severity of Illness Score, Median",[2]; [4],0.0
same,"Change from Baseline in CGI Severity of Illness Score, Trt Effect (bifeprunox—placebo)",[2]; [4],−0.28
same,"Change from Baseline in CGI Severity of Illness Score, Mean (SD)","[2]; Bifeprunox 40 mg, Week 1",−0.28 (0.65)
same,"Change from Baseline in CGI Severity of Illness Score, Median","[2]; Bifeprunox 40 mg, Week 1",0.0
same,"Change from Baseline in CGI Severity of Illness Score, Mean (SD)","[2]; Bifeprunox 40 mg, Week 2",−0.43 (0.90)
same,"Change from Baseline in CGI Severity of Illness Score, Median","[2]; Bifeprunox 40 mg, Week 2",0.0
same,"Change from Baseline in CGI Severity of Illness Score, Mean (SD)","[2]; Bifeprunox 40 mg, Week 3",−0.54 (1.02)
same,"Change from Baseline in CGI Severity of Illness Score, Median","[2]; Bifeprunox 40 mg, Week 3",0.0
same,"Change from Baseline in CGI Severity of Illness Score, Mean (SD)","[2]; Bifeprunox 40 mg, Week 4",−0.51 (1.08)
same,"Change from Baseline in CGI Severity of Illness Score, Median","[2]; Bifeprunox 40 mg, Week 4",0.0
same,"Change from Baseline in CGI Severity of Illness Score, Mean (SD)",[2]; [5],−0.54 (1.12)
same,"Change from Baseline in CGI Severity of Illness Score, Median",[2]; [5],0.0
same,"Change from Baseline in CGI Severity of Illness Score, Trt Effect (bifeprunox—placebo)",[2]; [5],−0.18
same,"CGI severity of illness score, treatment effect (bifeprunox—placebo)",[2]; bifeprunox 30 mg,−0.28
same,mean change (SD) from Baseline to Endpoint in CGI severity of illness score,[2]; bifeprunox 30 mg,−0.69 (1.19)
same,"CGI severity of illness score, treatment effect (bifeprunox—placebo)",[2]; bifeprunox 40 mg,−0.18
same,mean change (SD) from Baseline to Endpoint in CGI severity of illness score,[2]; bifeprunox 40 mg,−0.54 (1.12)
same,"AKATHISIA, %",[3]; BX 30 mg,(3%)
same,"BALANCE DISORDER, %",[3]; BX 30 mg,(<1%)
same,"COGWHEEL RIGIDITY, %",[3]; BX 30 mg,(<1%)
same,"DISTURBANCE IN ATTENTION, %",[3]; BX 30 mg,(<1%)
same,"DIZZINESS, %",[3]; BX 30 mg,(8%)
same,"DYSARTHRIA, %",[3]; BX 30 mg,(<1%)
same,"DYSGEUSIA, %",[3]; BX 30 mg,(<1%)
same,"DYSKINESIA, %",[3]; BX 30 mg,(1%)
same,"Dystonia, %",[3]; BX 30 mg,(2%)
same,"EXTRAPYRAMIDAL DISORDER, %",[3]; BX 30 mg,(5%)
same,"HEADACHE NOS, %",[3]; BX 30 mg,(12%)
same,"MIGRAINE, %",[3]; BX 30 mg,1 (<1%)
same,"NERVOUS SYSTEM DISORDERS, %",[3]; BX 30 mg,(36%)
same,"PARAESTHESIA, %",[3]; BX 30 mg,1 (<1%)
same,"PSYCHOMOTOR HYPERACTIVITY, %",[3]; BX 30 mg,1 (<1%)
same,"SEDATION, %",[3]; BX 30 mg,5%
same,"Syncope, %",[3]; BX 30 mg,1 (<1%)
same,"TARDIVE DYSKINESIA, %",[3]; BX 30 mg,< 1%
same,"TREMOR, %",[3]; BX 30 mg,6%
same,"AKATHISIA, %",[3]; BX 40 mg,(7%)
same,"Choreoathetosis, %",[3]; BX 40 mg,(<1%)
same,"DIZZINESS, %",[3]; BX 40 mg,(14%)
